Experimental findings from patent US20150148311A1, “NON-SYSTEMIC TGR5 AGONISTS” (Ardelyx, Inc., priority 2011, published 2015) are described below.

One series has as its target T1, human IBAT (Homo sapiens, UniProt Q12908).
T1 construct: expressed in transfected cells; host or cells: HEK293
T1 sequence (Q12908 1-348): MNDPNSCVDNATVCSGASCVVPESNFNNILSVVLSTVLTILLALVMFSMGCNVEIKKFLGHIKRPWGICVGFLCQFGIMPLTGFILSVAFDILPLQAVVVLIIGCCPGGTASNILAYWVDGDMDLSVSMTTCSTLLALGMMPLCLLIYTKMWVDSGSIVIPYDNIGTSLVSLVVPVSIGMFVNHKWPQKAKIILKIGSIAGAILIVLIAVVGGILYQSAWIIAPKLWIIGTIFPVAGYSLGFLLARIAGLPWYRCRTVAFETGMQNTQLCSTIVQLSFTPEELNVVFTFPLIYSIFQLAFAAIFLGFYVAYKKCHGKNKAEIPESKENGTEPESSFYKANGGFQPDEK
Nature of the series: IBAT counter screen, [3H]taurocholic acid uptake in IBAT-transfected HEK293 cells. The format is cell-based. The conditions noted are these: for EC50: read-out: pEC50 human IBAT (converted). Here is the method: Following a 40-min incubation, the solution was removed, and the cells were washed twice with uptake buffer. Cells were lysed by addition of 20 μL 0.1% Tween 80 followed by 100 μL scintillation fluid and counted using a TopCount (Perkin Elmer).

A short description of series [1]: Compound plasma concentration, LC-MS/MS, 8 h post dose. The format is in vivo. The conditions noted are these: 30 mg/kg; for Number of Mice with Plasma Concentration < LLOQ: mice below LLOQ / mice in group; for concentration at 8 h: male, C57BL/6, mouse, mice, plasma, read-out: Mean Example Plasma Concentration. As to the method: (§1) Eight hours later, each mouse was heavily anesthetized with isoflurane, the peritoneal cavity was opened and the gallbladder, with its entire contents, was carefully excised and weighed. Blood was collected from the left ventricle of the heart and processed to plasma in EDTA-coated tubes containing aprotinin and DPPIV inhibitor for measurement of total GLP-1 (K150FCC; Meso Scales Discovery, Gaithersburg Md.).
Plasma samples were treated with acetonitrile containing an internal standard, precipitated proteins removed by centrifugation. Supernatants were analyzed by LC-MS/MS and compound concentrations were determined by interpolated from a standard curve prepared in plasma.

A further series addresses T2, human TGR5 (Homo sapiens, UniProt Q8TDU6).
T2 construct: expressed in transfected cells
T2 sequence (Q8TDU6 1-330): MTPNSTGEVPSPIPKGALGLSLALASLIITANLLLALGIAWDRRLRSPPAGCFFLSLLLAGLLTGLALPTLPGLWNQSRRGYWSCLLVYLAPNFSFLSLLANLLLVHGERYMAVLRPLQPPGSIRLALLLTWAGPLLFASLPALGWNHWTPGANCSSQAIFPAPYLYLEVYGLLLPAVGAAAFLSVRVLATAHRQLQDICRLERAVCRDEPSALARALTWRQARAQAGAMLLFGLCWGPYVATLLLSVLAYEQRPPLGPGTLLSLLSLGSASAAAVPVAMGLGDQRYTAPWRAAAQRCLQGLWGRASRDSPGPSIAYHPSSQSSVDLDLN
Nature of the series: Cell-based TGR5 assay, HEK293 cells stably expressing human TGR5, cAMP by HTRF. The conditions noted are these: pEC50 Human TGR5, HEK293 cells stably expressing human TGR5, 30 min at 37 C, 0.05 nM to 10 μM. Put shortly: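 cAMP HTRF read-out, converted to concentration via standard curve, after a 30 min, 37 °C compound exposure in HBSS with 10 mM HEPES pH 7.4 and 0.5 mM IBMX, compounds serially diluted 3-fold from 10 mM DMSO stock then 100-fold. Cells: stable human TGR5 HEK293, or NCI-H716 expressing TGR5 endogenously.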
(In general: Time-resolved FRET reads energy transfer from a long-lived donor to a nearby acceptor.)

A short description of series [2]: Compound concentration in gall bladder, LC-MS/MS, 8 h post dose. The format is in vivo. As to conditions: 30 mg/kg; for Number of Mice with Gallbladder Concentration < LLOQ: mice below LLOQ / mice in group; for concentration at 8 h: male, C57BL/6, mouse, with contents, mice, gallbladder homogenate, read-out: Mean Example Gallbladder Concentration. As to the method: as §1
Compound concentrations in the gall bladder were determined as follows: each mouse was heavily anesthetized with isoflurane, the peritoneal cavity was opened and the gallbladder, with its entire contents, was carefully excised. After harvest, gall bladders were homogenized in 100 μL water using a micro-homogenizer. Samples of homogenate were diluted 1:5 in water and precipitated with three volumes of neat acetonitrile. After centrifugation, supernatants were analyzed by LC-MS/MS. The level of test compound present in gall bladder samples was interpolated from a standard curve for each individual compound prepared in a matrix of gallbladder homogenate from vehicle treated animals.

`O=C([C@@H]1CCCN1Cc1cc(Cl)ccc1Cl)N1CCCc2ccccc21` [Example 10, (S)-(1-(2,5-dichlorobenzyl)pyrrolidin-2-yl)(3,4-dihydroquinolin-1(2H)-yl)methanone]: the EC50 at human IBAT is over 25.1 µM.
Still for that read-out and setting: the value for `O=C([C@H]1CCCCN1Cc1cc(Cl)ccc1Cl)N1CCN(C2CC2)c2ccccc21` [Example 16, (R)-(4-cyclopropyl-3,4-dihydroquinoxaline-1(2H)-yl)(1-(2,5-dichlorobenzyl)piperidin-2-yl) methanone] was over 25.1 µM; that for `O=C([C@@H]1CCCN1Cc1cc(Cl)ccc1Cl)N1CCN(C2CC2)c2ccccc21` [Example 12, (S)-(4-cyclopropyl-3,4-dihydroquinoxalin-1(2H)-yl)(1-(2,5-dichlorobenzyl)pyrrolidin-2-yl)methanone] was over 25.1 µM; that for `C[C@@]1(C(=O)N2CCN(C3CC3)c3ccccc32)CCCN1Cc1cc(Cl)ccc1Cl` [Example 20, (S)-(4-cyclopropyl-3,4-dihydroquinoxaline-1(2H)-yl)(1-(2,5-dichlorobenzyl)-2-methylpyrrolidin-2-yl)methanone] was over 25.1 µM.
Same read-out and setting: to `O=C([C@@H]1C[C@@H](O)CN1Cc1cc(Cl)ccc1Cl)N1CCN(C2CC2)c2ccccc21` [Example 2, (4-cyclopropyl-3,4-dihydroquinoxalin-1(2H)-yl)((2S,4R)-1-(2,5-dichlorobenzyl)-4-hydroxypyrrolidin-2-yl)methanone] belongs over 25.1 µM; to `O=C([C@@H]1C[C@H](F)CN1Cc1cc(Cl)ccc1Cl)N1CCN(C2CC2)c2ccccc21` [Example 3, (4-cyclopropyl-3,4-dihydroquinoxalin-1(2H)-yl)((2S,4S)-1-(2,5-dichlorobenzyl)-4-fluoropyrrolidin-2-yl)methanone], over 25.1 µM.
As for `C[C@@H](NC(=O)[C@@H](C)NC(=O)[C@@H](C)NC(=O)CCCCc1cc(Cl)c(CN2CSC[C@H]2C(=O)N2CCN(C3CC3)c3ccccc32)cc1Cl)C(=O)O` [Example 227], in series [1], the “Number of Mice with Plasma Concentration < LLOQ” value is 7/8 and the concentration at 8 h worked out at 0.6 ng/mL. For the same molecule, at human TGR5, the EC50 was under 0.1 µM. Further, in series [2], the “Number of Mice with Gallbladder Concentration < LLOQ” value is on record as 0/7 and the concentration at 8 h is 1730 nM.
Consider `C[C@H](CCC(=O)O)[C@H]1CC[C@H]2[C@@H]3[C@H](O)C[C@@H]4C[C@H](O)CC[C@]4(C)[C@H]3CC[C@]12C` [chenodeoxycholic acid, reference compound], for which the “inhibition of uptake of [3H]taurocholic acid” value against human IBAT (IBAT-transfected HEK293 cells, potency similar to that reported by Craddock) was “inhibited uptake”.
For the molecule `CN(C[C@H](O)[C@@H](O)[C@H](O)[C@H](O)CO)C(=O)CC[C@H](NC(=O)CCCCc1cc(Cl)c(CN2CSC[C@H]2C(=O)N2CCN(C3CC3)c3ccccc32)cc1Cl)C(=O)O` [Example 278], in series [1], the “Number of Mice with Plasma Concentration < LLOQ” value was 5/8 and the concentration at 8 h amounted to 2.3 ng/mL. Also, on human TGR5, the EC50 lay within 0.126 to 1 µM. In series [2], the “Number of Mice with Gallbladder Concentration < LLOQ” value is recorded as 0/8 and the concentration at 8 h is 3100 nM.
For the molecule `O=C([C@@H]1CSCCN1Cc1cc(Cl)ccc1Cl)N1CCN(C2CC2)c2ccccc21` [Example 22, (R)-(4-cyclopropyl-3,4-dihydroquinoxaline-1(2H)-yl)(4-(2,5-dichlorobenzyl)thiomorpholin-3-yl)methanone], the EC50 on human IBAT is over 25.1 µM.
Consider `O=C(NCCCCCc1cc(Cl)c(CN2CSC[C@H]2C(=O)N2CCN(C3CC3)c3ccccc32)cc1Cl)N1CCN(CP(=O)(O)O)CC1` [Example 282], for which, in series [1], the “Number of Mice with Plasma Concentration < LLOQ” value is given as 0/8 and the concentration at 8 h was found to be 2.8 ng/mL. Further, the EC50 at human TGR5 is under 0.1 µM. In series [2], the “Number of Mice with Gallbladder Concentration < LLOQ” value is 0/7 and the concentration at 8 h came to 80 nM.
As for `O=C(NCCCCCc1cc(Cl)c(CN2CSC[C@H]2C(=O)N2CCN(C3CC3)c3ccccc32)cc1Cl)NCP(=O)(O)O` [Example 283], in series [1], the “Number of Mice with Plasma Concentration < LLOQ” value is recorded as 7/8 and the concentration at 8 h amounted to 24.8 ng/mL. This molecule also came in with an EC50 at human TGR5 of 0.126 to 1 µM. In series [2], the “Number of Mice with Gallbladder Concentration < LLOQ” value is reported as 0/8 and the concentration at 8 h amounted to 3060 nM.
